Laboratory results taken from ChEMBL document CHEMBL1148885, “Modeling assisted rational design of novel, potent, and selective pyrrolopyrimidine DPP-4 inhibitors” (Bioorg Med Chem Lett, 2007).

How the values were obtained:
Dipeptidyl peptidase 2 = Dipeptidyl peptidase 2 (Homo sapiens, UniProt Q9UHL4); experiment: Inhibition of QPP
Dipeptidyl peptidase 4 = Dipeptidyl peptidase 4 (Homo sapiens, UniProt P27487)
Dipeptidyl peptidase 8 = Dipeptidyl peptidase 8 (Homo sapiens, UniProt Q6V1X1); experiment: Inhibition of DPP8
Dipeptidyl peptidase 9 = Dipeptidyl peptidase 9 (Homo sapiens, UniProt Q86TI2)
Dipeptidyl peptidase 9, sequence (Q86TI2 whole entry): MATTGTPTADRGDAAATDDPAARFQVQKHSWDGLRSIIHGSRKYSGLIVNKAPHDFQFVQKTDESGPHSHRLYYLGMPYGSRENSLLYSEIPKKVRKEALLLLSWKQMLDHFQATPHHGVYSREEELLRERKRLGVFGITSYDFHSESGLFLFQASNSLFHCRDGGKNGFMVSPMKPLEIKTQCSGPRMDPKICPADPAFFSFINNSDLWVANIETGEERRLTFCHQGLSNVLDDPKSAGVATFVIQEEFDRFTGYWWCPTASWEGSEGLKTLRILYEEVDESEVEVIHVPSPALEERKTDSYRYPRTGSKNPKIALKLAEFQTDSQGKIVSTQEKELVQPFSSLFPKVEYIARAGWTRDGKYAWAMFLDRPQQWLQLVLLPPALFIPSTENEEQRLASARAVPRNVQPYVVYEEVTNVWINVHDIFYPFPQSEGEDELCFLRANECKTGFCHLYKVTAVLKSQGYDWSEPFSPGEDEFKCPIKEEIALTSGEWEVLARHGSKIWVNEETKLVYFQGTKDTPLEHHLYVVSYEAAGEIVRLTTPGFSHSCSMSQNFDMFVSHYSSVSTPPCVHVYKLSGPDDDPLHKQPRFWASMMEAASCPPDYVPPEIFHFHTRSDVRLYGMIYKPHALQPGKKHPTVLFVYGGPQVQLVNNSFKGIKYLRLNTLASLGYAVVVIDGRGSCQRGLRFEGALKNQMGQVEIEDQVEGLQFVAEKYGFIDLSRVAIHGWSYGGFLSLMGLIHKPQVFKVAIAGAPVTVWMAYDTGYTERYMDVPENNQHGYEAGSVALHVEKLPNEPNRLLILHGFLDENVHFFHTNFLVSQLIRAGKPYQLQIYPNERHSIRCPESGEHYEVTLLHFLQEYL

Dipeptidyl peptidase 4, sequence (P27487 whole entry): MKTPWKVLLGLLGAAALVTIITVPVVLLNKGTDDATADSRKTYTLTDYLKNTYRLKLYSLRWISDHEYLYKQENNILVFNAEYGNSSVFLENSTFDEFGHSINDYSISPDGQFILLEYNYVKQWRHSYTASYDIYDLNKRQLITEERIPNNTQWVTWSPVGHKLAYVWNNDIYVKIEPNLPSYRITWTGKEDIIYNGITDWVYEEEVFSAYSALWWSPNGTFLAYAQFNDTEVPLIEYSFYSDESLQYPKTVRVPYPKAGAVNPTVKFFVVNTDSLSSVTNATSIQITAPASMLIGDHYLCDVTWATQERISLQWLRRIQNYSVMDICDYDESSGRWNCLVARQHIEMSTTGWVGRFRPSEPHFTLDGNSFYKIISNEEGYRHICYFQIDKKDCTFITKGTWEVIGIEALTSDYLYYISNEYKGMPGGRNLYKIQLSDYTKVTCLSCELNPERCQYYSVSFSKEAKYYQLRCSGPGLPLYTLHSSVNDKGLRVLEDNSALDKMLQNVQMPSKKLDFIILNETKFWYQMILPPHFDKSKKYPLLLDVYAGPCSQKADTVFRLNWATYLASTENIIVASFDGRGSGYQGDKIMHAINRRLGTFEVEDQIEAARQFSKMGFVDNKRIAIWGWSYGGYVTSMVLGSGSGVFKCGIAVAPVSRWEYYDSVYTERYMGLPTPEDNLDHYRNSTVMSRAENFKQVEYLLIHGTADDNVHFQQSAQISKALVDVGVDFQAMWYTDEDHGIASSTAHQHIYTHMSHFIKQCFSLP
Dipeptidyl peptidase 8, sequence (Q6V1X1 whole entry): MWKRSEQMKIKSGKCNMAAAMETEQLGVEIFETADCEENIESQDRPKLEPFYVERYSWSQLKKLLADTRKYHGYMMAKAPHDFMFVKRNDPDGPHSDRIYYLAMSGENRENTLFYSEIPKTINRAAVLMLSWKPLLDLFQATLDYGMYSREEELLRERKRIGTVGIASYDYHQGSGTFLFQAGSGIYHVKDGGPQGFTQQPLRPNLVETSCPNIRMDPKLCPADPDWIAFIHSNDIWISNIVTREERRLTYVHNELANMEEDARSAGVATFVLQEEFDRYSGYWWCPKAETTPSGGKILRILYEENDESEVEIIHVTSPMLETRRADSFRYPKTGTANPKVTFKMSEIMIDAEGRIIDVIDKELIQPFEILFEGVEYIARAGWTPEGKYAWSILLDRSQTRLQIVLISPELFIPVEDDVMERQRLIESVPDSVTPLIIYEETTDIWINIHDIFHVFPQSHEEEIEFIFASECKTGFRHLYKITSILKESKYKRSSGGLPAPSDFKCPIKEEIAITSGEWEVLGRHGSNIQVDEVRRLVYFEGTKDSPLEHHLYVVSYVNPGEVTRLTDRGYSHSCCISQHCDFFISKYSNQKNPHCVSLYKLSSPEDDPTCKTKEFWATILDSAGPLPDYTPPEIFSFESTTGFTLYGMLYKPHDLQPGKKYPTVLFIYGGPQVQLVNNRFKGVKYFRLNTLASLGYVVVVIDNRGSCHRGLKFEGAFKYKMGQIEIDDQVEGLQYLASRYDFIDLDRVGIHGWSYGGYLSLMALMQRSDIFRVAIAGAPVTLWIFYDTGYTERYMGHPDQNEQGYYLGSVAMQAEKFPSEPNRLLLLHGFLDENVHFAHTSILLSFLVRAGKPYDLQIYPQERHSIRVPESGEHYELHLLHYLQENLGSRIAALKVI

Q: For `N[C@H]1C[C@@H](N2Cc3ccccc3C2)CC[C@@H]1c1cc(F)c(F)cc1F`, which IC50 (Dipeptidyl peptidase 2) is on record?
A: The IC50 was 68 µM.

Q: And the IC50 (Dipeptidyl peptidase 4)?
A: The IC50 was 0.0066 µM.

Q: Which IC50 (Dipeptidyl peptidase 2) does the source give for `N[C@H]1C[C@@H](N2Cc3cnc(C4CC4)nc3C2)CC[C@@H]1c1cc(F)c(F)cc1F` here?
A: The IC50 was 61 µM.

Q: And the IC50 (Dipeptidyl peptidase 4)?
A: The IC50 was 0.0053 µM.

Q: `N[C@H]1C[C@@H](N2CCn3c(nnc3C(F)(F)F)C2)CC[C@@H]1c1cc(F)c(F)cc1F` was tested. Which IC50 (Dipeptidyl peptidase 2) did it give?
A: The IC50 was greater than 100 µM.

Q: And the IC50 (Dipeptidyl peptidase 8)?
A: Its IC50 is greater than 100 µM.

Q: What about the IC50 (Dipeptidyl peptidase 9) of the same compound?
A: Its IC50 is greater than 100 µM.

Q: Which IC50 (Dipeptidyl peptidase 2) does the source give for `N[C@H]1C[C@@H](N2Cc3cncnc3C2)CC[C@@H]1c1cc(F)c(F)cc1F` here?
A: The IC50 was greater than 100 µM.

Q: What about the IC50 (Dipeptidyl peptidase 4) of the same compound?
A: The IC50 was 0.00067 µM.
